Key:
[1] = Relaxation rate measurement (R1, R2) in PBS and in PBS solution of HSA; type: physicochemical; settings: 293K
Description: T1 measurement is carried out using an inversion recovery method at 1.5 T (64 MHz) in a variable inverse time (TI). MR images are obtained for 35 different TI values in a range of 50 to 1750 ms. A T1 relaxation time is obtained from a nonlinear least-squares fit of a signal strength measured at each TI value. For a T2 CPMG (Carr-Purcell-Meiboon-Gill) pulse sequence measurement, the measurement is adapted to a multi spin-echo measurement. 34 images are obtained at 34 different echo time (TE) values in a range of 10 to 1900 ms. The T2 relaxation time is obtained from a nonlinear least-squares fit of mean pixel values for multi spin-echo measurement at each echo time. Next, a relaxation rate (R1 and R2) is calculated as an inverse of a relaxation time per mM. The determined relaxation time (T1 and T2) and relaxation rate (R1 and R2) are subjected to an image processing to get a relaxation time map and relaxation rate respectively.
For comparison between the complexes 2a-e, there is no noticeable difference in R1's. The measurement is carried out for two different media, that is, PBS (pH=7.4) and PBS solution of HAS in order to indicate which blood-pool effect is expressed by the complexes 2a-e.

[2] = Isothermal titration calorimeter (ITC), binding of Gd^3+ to ligand; settings: 25° C., pH = 4.5, read-out: Kd (dissociation constant)
Description: In order to quantify binding isotherms of paramagnetic metal ions Gd^3+ with a ligand solution, an ITC test is executed at a VP-ITC isothermal titration microcalorimeter (Microcal, USA). Data collection, analysis and plotting are executed with help of software package Origin, version 8.0 from Microcal. A sample cell has a 1.43 mL volume. The cell is filled with a water-soluble buffer solution of the above compound 1a-e ligand (0.2 mM). A water-soluble buffer solution of Gd^3+ (1.0 mM) is input into a 300 μL continuous agitated (300 rpm) syringe and 10 μL aliquots thereof is injected into the cell. At a 3-mins interval, the cell is delivered over 20 s. Data points are collected on a 2 s basis. The measurement is executed at 25° C. All titrations are executed three times to secure data consistency and solution stability. These titration isotherms are integrated to find out an enthalpy change at each injection. In order to fit well with two mathematically different sets of site models, the titration isotherms are analyzed. Via a calorie measurement, parameters including a binding constant (Ka), a change in enthalpy (ΔH), a stoichiometry of binding (N) are calculated. Next, a free energy (ΔG) and an entropy change (ΔS) are calculated using a following complexation equation: Mn++nL↔MLn:ΔG=−RT·InKa=ΔH-TΔS,
where, R indicates a universal gas constant; T is Kelvin temperature.

[3] = PBS solution of 0.67 mM HSA, 64 MHz

Row | SMILES | Kd [2] | further results
1 | O=C([O-])CN1CCN(CC(=O)[O-])CCN([C@H](CO)[C@H](O)CO)CCN(CC(=O)[O-])CC1.[Gd+3] (racemic) [Gadovist, Gd-BT-DO3A, reference compound] | – | R1 ([1]; PBS pH 7.4, 64 MHz (1.5 T)): 4.38 ± 0.15 mM⁻¹ s⁻¹; R2 ([1]; PBS pH 7.4, 64 MHz (1.5 T)): 4.27 ± 0.30 mM⁻¹ s⁻¹; R1 in 0.67 mM HSA [1, 3]: 4.81 ± 0.17 mM⁻¹ s⁻¹; R2 in 0.67 mM HSA [1, 3]: 5.54 ± 0.24 mM⁻¹ s⁻¹
2 | CCOC(=O)C1CCC(CNC(=O)CN2CCN(CC(=O)O)CCN(CC(=O)O)CCN(CC(=O)O)CC2)CC1 (centres unmarked) [1a] | 19.3 µM | –
3 | O=C(O)CN1CCN(CC(=O)O)CCN(CC(=O)NCC2CCC(C(=O)O)CC2)CCN(CC(=O)O)CC1 (centres unmarked) [1b] | 3.98 µM | –
4 | NCCNC(=O)C1CCC(CNC(=O)CN2CCN(CC(=O)O)CCN(CC(=O)O)CCN(CC(=O)O)CC2)CC1 (centres unmarked) [1c] | 16.8 µM | –
5 | NC1CCC(NC(=O)CN2CCN(CC(=O)O)CCN(CC(=O)O)CCN(CC(=O)O)CC2)CC1 (centres unmarked) [1d] | 29.3 µM | –
